This note sets out measurements from patent publication US20260209272A1 (priority 2022, published 2026).

Ends that are not written are not given here.

In one data set the test system is detached potato leaves. The note with it: detached potato leaves treated with peptide plus water, no inoculum; 9 = clean leaves.
Data set [1] relates to Phytophthora infestans. The class given is in vivo.
In data set [2] the test system is Phytophthora infestans. The class given is in vivo. The source holds these as a separate data set.
The test system of data set [3] is Phytophthora infestans zoospores.

For the substance RNTAQIP [Peptide V2, RNTAQIP], in the data set with detached potato leaves, the “score (1-9 scale), negative control without Phytophthora infestans inoculation” value was found to be 8.67.

For RITAQIRL [Peptide V1], the “protection against infection (in words), experiment repeated one week later” value in the data set with Phytophthora infestans [1] (400 uM, detached potato leaves) is “almost as good at reducing infection”. In the data set with Phytophthora infestans [1] (6 days after Phytophthora infection, 50 sporangia/ul final, 4 drops of 10 ul per leaflet, 20 C, peptides 400 uM final, Mancozeb product diluted 1:1000, 9 = no symptoms, water positive control 6.56), the “average score (1-9 scale of late blight infection)” value is listed as 8.37. Further, in the data set on Phytophthora infestans [1] (detached leaf assay, Peptide V1 expressed in E. coli), the “late blight lesions, peptide expressed in E. coli” value is reported as “it allowed the development of minor late blight lesions, it is noteworthy that these lesions did not progress”. In the data set on Phytophthora infestans [1] (detached potato leaves), the “protection (in words), further repeat, first time” value is given as “some protection” and the “protection (in words), further repeat, second time” value is listed as “excellent protection”. Also, the “overall conclusion on efficacy” value in the data set on Phytophthora infestans [1] (over all detached leaf experiments) is on record as “consistently works well”. Besides, in the data set on Phytophthora infestans [2] (large plants, 400 μM peptide), the “protection among concentrations tested with and without LI-700” value is “best protection”. The “severity of symptoms compared with non-treated control group, combination” value in the data set on Phytophthora infestans [2] (plant assays, low dose Peptide V1 (25 μM) combined with low dose of Mancozeb) is given as “approximately the same”. Further, the “severity of symptoms compared with non-treated control group” value in the data set with Phytophthora infestans [2] (plant assays, low dose alone (Peptide V1 25 μM; low dose of Mancozeb)) is given as “approximately the same”. In the data set with Phytophthora infestans [2] (whole plant assays, 400 μM peptide concentration), the disease reduction entry is on record as “approximately 60%”. Also, in data set [3] (FIG. 9 legend), the “activity in the presence of other agrochemical active ingredients” value is recorded as “retains its activity”. In data set [3] (Peptide V1 expressed in E. coli), the “zoospore germination, peptide expressed in E. coli” value was “completely inhibited zoospore germination”. The “additive or synergistic effects with chemical fungicides” value in data set [3] (Peptide V1 with either Mancozeb or Fungonil (Chlorothalonil), germination assays) is recorded as “did not indicate any evidence of additive or synergistic effects”.
